According to ChEMBL document CHEMBL4219040, “Modulation of Glycine-Mediated Spinal Neurotransmission for the Treatment of Chronic Pain” (J Med Chem, 2018):

Assays:
[1] = target: T1, Sodium- and chloride-dependent glycine transporter 1 (Homo sapiens, UniProt P48067); test: Inhibition of human GlyT-1
T1 sequence (P48067 whole entry): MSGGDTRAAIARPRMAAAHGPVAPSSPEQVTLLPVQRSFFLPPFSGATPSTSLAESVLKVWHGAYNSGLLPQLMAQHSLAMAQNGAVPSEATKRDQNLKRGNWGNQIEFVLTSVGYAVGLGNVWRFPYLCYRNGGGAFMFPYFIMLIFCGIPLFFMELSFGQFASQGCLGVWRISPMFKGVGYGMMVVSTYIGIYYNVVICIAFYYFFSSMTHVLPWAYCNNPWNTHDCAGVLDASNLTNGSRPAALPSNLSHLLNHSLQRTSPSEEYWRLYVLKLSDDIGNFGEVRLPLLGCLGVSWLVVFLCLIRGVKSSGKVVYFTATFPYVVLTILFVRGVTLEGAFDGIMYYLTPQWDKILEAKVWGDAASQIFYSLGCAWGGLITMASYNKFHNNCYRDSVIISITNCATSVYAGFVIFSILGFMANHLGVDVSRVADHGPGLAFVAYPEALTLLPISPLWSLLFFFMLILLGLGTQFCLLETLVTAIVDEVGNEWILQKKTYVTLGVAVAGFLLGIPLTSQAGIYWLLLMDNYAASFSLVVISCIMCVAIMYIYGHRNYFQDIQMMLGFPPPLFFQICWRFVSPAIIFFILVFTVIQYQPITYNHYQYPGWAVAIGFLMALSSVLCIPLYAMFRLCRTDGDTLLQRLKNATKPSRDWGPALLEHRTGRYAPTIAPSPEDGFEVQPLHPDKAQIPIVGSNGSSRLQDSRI

[2] = target: T2, P2X purinoceptor 7 (Mus musculus) (UniProt Q9Z1M0); test: Agonist activity at P2X7 receptor in C57Bl6 mouse lumbar spinal cord slices assessed as increase in glycinergic inhibitory postsynaptic currents after 20 to 26 mins by electrophysiology method relative to control; set-up: scale not given: the % may be the effect or the level left
T2 sequence (whole entry): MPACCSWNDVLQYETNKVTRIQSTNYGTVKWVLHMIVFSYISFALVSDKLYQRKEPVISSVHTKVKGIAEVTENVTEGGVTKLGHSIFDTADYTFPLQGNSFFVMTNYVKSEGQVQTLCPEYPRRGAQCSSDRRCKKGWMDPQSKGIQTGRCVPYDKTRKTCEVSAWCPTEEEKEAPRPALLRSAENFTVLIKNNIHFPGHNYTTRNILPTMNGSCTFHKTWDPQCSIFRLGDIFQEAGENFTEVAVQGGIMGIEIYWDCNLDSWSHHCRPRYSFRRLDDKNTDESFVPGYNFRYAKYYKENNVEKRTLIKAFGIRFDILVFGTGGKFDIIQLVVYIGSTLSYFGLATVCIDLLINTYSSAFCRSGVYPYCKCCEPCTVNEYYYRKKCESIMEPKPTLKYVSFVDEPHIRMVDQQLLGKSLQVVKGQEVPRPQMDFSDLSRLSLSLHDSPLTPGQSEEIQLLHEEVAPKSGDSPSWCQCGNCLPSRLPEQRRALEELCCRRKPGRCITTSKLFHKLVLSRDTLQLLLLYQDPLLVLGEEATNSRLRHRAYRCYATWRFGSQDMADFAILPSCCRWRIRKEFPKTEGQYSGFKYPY

[3] = target: T3, Glycine receptor alpha-3/beta (Homo sapiens, UniProt O75311+P48167); test: Positive allosteric modulation of human GlyRalpha3beta expressed in CHO cells assessed as potentiation of EC5 to EC10 glycine-induced response at 10 uM by manual patch clamp assay; assay type: cell-based
[4] = target: T3, Glycine receptor alpha-3/beta; test: Positive allosteric modulation of human GlyRalpha3beta expressed in CHO cells assessed as potentiation of EC20 glycine-induced response at 5.9 uM by fluorescence based HTS assay; assay type: cell-based
[5] = target: T3, Glycine receptor alpha-3/beta; test: Positive allosteric modulation of human GlyRalpha3beta expressed in CHO cells assessed as potentiation of EC20 glycine-induced ion flux at 10 uM by HT assay; assay type: cell-based
[6] = tested on: Rattus norvegicus; test: Antiallodynic activity in po dosed rat spinal nerve ligation model assessed as reduction in mechanical allodynia; assay type: functional
[7] = target: 5-hydroxytryptamine receptor 2A (Homo sapiens, UniProt P28223); test: Antagonist activity at human 5-HT2A; assay type: functional
[8] = tested on: Rattus norvegicus; test: Analgesic activity in sc dosed formalin-induced pain rat model by formalin test; assay type: functional
[9] = target: T4, Sodium- and chloride-dependent glycine transporter 2 (Homo sapiens, UniProt Q9Y345); test: Inhibition of GlyT-2 (unknown origin)
T4 sequence (Q9Y345 whole entry): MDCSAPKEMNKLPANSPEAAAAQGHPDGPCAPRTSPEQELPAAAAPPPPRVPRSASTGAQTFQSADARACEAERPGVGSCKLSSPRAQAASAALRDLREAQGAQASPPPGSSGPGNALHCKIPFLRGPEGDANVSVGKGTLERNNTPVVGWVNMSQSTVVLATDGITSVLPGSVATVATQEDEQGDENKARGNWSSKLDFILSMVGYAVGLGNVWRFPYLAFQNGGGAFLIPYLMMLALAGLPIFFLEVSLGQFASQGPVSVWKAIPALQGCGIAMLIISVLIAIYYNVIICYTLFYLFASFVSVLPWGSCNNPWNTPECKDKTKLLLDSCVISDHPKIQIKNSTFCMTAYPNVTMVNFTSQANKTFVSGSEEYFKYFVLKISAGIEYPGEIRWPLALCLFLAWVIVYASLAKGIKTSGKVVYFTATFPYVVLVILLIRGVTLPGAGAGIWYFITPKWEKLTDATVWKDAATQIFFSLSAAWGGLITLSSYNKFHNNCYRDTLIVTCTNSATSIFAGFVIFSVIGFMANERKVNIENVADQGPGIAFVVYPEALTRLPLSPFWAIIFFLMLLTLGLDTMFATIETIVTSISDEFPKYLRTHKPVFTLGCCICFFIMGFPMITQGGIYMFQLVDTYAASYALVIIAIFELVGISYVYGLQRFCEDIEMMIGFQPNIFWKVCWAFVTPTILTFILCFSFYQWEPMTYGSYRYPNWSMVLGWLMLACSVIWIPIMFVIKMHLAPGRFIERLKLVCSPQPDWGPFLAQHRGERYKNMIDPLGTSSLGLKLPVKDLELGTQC

[10] = target: T3, Glycine receptor alpha-3/beta; test: Positive allosteric modulation of human GlyRalpha3beta expressed in CHO cells assessed as potentiation of EC20 glycine-induced ion flux by HT assay; assay type: cell-based
[11] = organism: Rattus norvegicus; test: Antiallodynic activity in spinal cord injury Sprague-Dawley rat model assessed as inhibition of non-voiding contraction amplitude at 10 ug, it relative to control; assay type: functional
[12] = organism: Rattus norvegicus; test: Antiallodynic activity in spinal cord injury Sprague-Dawley rat model assessed as inhibition of non-voiding contraction frequency at 10 ug, it relative to control; assay type: functional
[13] = organism: Homo sapiens; test: Selectivity ratio of IC50 for human GlyT-1 expressed in HEK293 cells to IC50 for human GlyT-2 expressed in HEK293 cells; assay type: cell-based
[14] = target: T1, Sodium- and chloride-dependent glycine transporter 1; test: Inhibition of human GlyT-1 expressed in HEK293 cells assessed as reduction in [3H]-glycine uptake preincubated for 30 mins followed by 3H]-glycine addition measured after 30 mins by liquid scintillation counting method; assay type: cell-based
[15] = organism: Rattus norvegicus; test: Antiallodynic activity in spinal cord injury Sprague-Dawley rat model assessed as inhibition of non-voiding contraction frequency at 30 ug, it relative to control; assay type: functional
[16] = target: T4, Sodium- and chloride-dependent glycine transporter 2; test: Inhibition of human GlyT-2 expressed in HEK293 cells assessed as reduction in [3H]-glycine uptake preincubated for 30 mins followed by 3H]-glycine addition measured after 30 mins by liquid scintillation counting method; assay type: cell-based
[17] = Unbound brain to plasma concentration ratio in mouse; assay type: ADME, cell-free; conditions: read-out: K(p,uu,brain)
[18] = organism: Rattus norvegicus; test: Antiallodynic activity in spinal cord injury Sprague-Dawley rat model assessed as inhibition of non-voiding contraction amplitude at 30 ug, it relative to control; assay type: functional
[19] = tested on: Mus musculus; test: Antiallodynic activity in ddY mouse partial sciatic nerve ligation-injury model assessed as inhibition of mechanical allodynia by measuring paw withdrawal threshold in response to probing with von Frey hairs administered via iv route; assay type: functional
[20] = organism: Rattus norvegicus; test: Antiallodynic activity in Sprague-Dawley rat model of spared nerve injury-induced allodynia assessed as inhibition of electrically evoked inhibitory post-synaptic current amplitude in spinal cord by electrophysiology method; assay type: functional
[21] = tested on: Mus musculus; test: Analgesic activity in CFA-induced mechanical hyperalgesia C57BL/6J mouse model assessed as reduction in mechanical paw withdrawal threshold administered sc measured after 2 hrs; assay type: functional, organism-based
[22] = tested on: Mus musculus; test: In vivo inhibition of GlyT in CFA-induced mechanical hyperalgesia C57BL/6J mouse model assessed as increase in extracellular glycine level in CSF at 200 mg/kg, sc relative to basal level; assay type: functional
[23] = tested on: Mus musculus; test: In vivo receptor occupancy at GlyT-2 in formalin-induced pain mouse model at 20 mg/kg, ip; assay type: functional
[24] = tested on: Mus musculus; test: Analgesic activity in formalin-induced pain mouse model assessed as reduction in phase 2 paw licking behavior at 100 mg/kg, ip; assay type: functional; set-up: scale not given: the % may be the effect or the level left
[25] = tested on: Mus musculus; test: In vivo receptor occupancy at GlyT-2 in formalin-induced pain mouse model at 100 mg/kg, ip; assay type: functional
[26] = tested on: Mus musculus; test: In vivo receptor occupancy at GlyT-2 in formalin-induced pain mouse model at 0.06 mg/kg, ip; assay type: functional
[27] = Toxicity in ip dosed formalin-induced pain mouse model; assay type: organism-based; conditions: in vivo
[28] = target: T1, Sodium- and chloride-dependent glycine transporter 1; test: Inhibition of human GlyT-1 expressed in CHO cells assessed as reduction in [3H]-glycine uptake; assay type: cell-based
[29] = organism: Rattus norvegicus; test: Inhibition of GlyT in rat spinal cord lamina X neuron assessed as increase in extracellular glycine level at 10 uM relative to basal level; set-up: scale not given: the % may be the effect or the level left
[30] = tested on: Mus musculus; test: In vivo receptor occupancy at GlyT-2 in formalin-induced pain mouse model at 25 mg/kg, ip; assay type: functional
[31] = tested on: Mus musculus; test: Analgesic activity in formalin-induced pain mouse model assessed as reduction in phase 2 paw licking behavior at 25 mg/kg, ip; assay type: functional; set-up: scale not given: the % may be the effect or the level left

T3 sequence (O75311 whole entry): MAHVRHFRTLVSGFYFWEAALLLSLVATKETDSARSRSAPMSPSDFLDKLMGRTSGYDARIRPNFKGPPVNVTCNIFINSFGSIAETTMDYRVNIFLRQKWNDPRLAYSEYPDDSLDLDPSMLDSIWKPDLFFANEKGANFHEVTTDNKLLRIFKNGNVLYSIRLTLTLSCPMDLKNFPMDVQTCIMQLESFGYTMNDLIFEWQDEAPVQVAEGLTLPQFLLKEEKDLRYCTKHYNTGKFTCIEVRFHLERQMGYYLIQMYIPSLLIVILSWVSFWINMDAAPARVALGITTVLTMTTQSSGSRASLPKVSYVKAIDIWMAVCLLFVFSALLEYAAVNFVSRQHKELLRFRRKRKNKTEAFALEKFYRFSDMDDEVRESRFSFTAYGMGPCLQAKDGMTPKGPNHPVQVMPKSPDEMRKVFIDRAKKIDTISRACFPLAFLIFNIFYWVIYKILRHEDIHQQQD
T3 sequence (P48167 whole entry): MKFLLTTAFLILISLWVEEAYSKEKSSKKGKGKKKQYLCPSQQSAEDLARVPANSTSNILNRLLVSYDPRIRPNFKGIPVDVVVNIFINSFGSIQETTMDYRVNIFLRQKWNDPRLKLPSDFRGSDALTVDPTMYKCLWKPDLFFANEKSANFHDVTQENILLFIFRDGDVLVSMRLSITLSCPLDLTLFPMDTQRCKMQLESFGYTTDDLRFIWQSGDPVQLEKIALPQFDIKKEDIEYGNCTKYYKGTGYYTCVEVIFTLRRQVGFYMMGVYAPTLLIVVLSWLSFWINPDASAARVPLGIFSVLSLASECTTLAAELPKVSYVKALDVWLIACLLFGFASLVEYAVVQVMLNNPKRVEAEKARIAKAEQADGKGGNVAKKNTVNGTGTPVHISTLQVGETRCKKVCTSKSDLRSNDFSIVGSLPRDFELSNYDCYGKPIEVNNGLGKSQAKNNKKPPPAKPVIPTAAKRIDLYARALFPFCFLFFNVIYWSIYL
5-hydroxytryptamine receptor 2A, sequence (P28223 whole entry): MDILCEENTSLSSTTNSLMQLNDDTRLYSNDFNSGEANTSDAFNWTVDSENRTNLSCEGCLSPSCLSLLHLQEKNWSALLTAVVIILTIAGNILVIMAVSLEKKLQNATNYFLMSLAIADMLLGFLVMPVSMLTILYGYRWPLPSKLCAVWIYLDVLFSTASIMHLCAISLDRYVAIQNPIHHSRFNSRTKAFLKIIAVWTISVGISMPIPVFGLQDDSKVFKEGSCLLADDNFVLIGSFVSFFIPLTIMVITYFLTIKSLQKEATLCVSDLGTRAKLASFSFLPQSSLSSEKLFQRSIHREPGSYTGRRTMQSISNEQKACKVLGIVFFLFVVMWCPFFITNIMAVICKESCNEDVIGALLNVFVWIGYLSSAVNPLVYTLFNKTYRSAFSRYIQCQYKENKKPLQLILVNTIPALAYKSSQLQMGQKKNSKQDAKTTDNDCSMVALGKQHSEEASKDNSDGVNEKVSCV

CNCC(=O)O [SARCOSINE]
IC50 [1]: 91 µM

Nc1ncnc2c1ncn2[C@@H]1O[C@H](COP(=O)(O)OP(=O)(O)OP(=O)(O)O)[C@@H](OC(=O)c2ccc(C(=O)c3ccccc3)cc2)[C@H]1O
Activity [2]: 135%

CN1c2ncccc2N(Cc2ccccc2C(F)(F)F)C(=O)[C@H]1Cc1ccc(C(N)=O)cc1
Activity [3]: 303%
Activity [4]: 28%
Activity [5]: 64%

CCCCOc1c(OC)cc(C(=O)NCC2(N(C)C)CCOCC2)cc1OC
ED50 [6]: 80 mg/kg
IC50 [7]: 1.3 µM
ED50 [8]: 20 mg/kg

CCCCC/C=C\C/C=C\C/C=C\C/C=C\CCCC(=O)NCC(=O)O [ARACHIDONOYL GLYCINE]
IC50 [9]: 3 µM

O=[N+]([O-])c1cccc(S(=O)(=O)NCCOc2cccc3cccnc23)c1
Activity [3]: 136%
Activity [4]: 23%
Activity [5]: 98%

O=C(O)c1ccc(C[C@@H]2Sc3ccccc3N(Cc3ccccc3C(F)(F)F)C2=O)cc1F
Activity [3]: 259%
Activity [4]: 161%
Activity [5]: 44%

CC(C)(C)c1cc(C(C)(C)C)c(O)c(C(=O)O)c1O
Activity [3]: 2060%
Activity [4]: 67%
EC50 [10]: 0.0135 µM
Activity [5]: 182%

COc1ccc2c(c1)CC[C@H](CN(C)CC(=O)O)[C@@H]2c1ccccc1 [ORG-25935]
IC50 [1]: 0.1 µM

C#Cc1cc(C(=O)OC)cc(-c2ncco2)c1
Activity [3]: 255%
Activity [4]: 52%
EC50 [10]: 10.2 µM
Activity [5]: 49%

CN1C(=O)[C@@H]2CN(S(=O)(=O)c3ccc4c(c3)OCO4)C[C@@H]2c2cnccc21
Activity [3]: 1350%
Activity [4]: 94%
Activity [5]: 95%

O=S(=O)(NCCOc1cccc2cccnc12)c1ccccc1
Activity [3]: 2710%
Activity [4]: 65%
EC50 [10]: 3.98 µM
Activity [5]: 182%

N[C@@H](COC(c1cccc(F)c1)c1ccccc1OCc1ccccc1)C(=O)O (stereo partly drawn)
inhibition (INH) [11]: 26%
inhibition (INH) [12]: 65%
Ratio IC50 [13]: 40
IC50 [14]: 4 µM
inhibition (INH) [15]: 76%
IC50 [16]: 0.1 µM
Kp uu [17]: 0.036
inhibition (INH) [18]: 37%

NCC1(CC(=O)O)CCCCC1 [GABAPENTIN]
ED50 [19]: 8200 ng

NS(=O)(=O)c1cc2c(cc1Cl)NC(C1CC3C=CC1C3)NS2(=O)=O (stereo not drawn) [CYCLOTHIAZIDE]
inhibition (INH) [20]: 37.9%

O=C(O)c1ccc(C[C@H]2Sc3c(F)cccc3N(Cc3ccccc3C(F)(F)F)C2=O)cc1
Activity [3]: 396%
Activity [4]: 52%
EC50 [10]: 0.661 µM
Activity [5]: 59%

CCNCC(=O)O
EC50 [21]: 98 mg/kg
inhibition in vivo at 200 mg/kg [22]: 25%

COc1cc(C(=O)NCC2(N(C)C)CCCC2)cc(OC)c1OCc1ccccc1
Occ [23]: 82%
Activity [24]: 80%
ED50 [19]: 11 ng
Occ [25]: 60%
Occ [26]: 6%
MTD [27]: 2 mg/kg
IC50 [28]: > 100 µM
Kp uu [17]: 0.5
Activity [29]: 337%
Occ [30]: 36%
Activity [31]: 33%
